In patent publication US20100216734A1, “MODULATION OF NEUROGENESIS BY NOOTROPIC AGENTS” (BrainCells, Inc., priority 2006, published 2010):
“And” between values parts separate entries of the source, which are not always exact repeats. Equal values may be shown once. “Also recorded” adds a separate entry of the source. Where a name gives a salt, the structure may show the parent alone. Read-outs that look alike come from different tables or passages of the source. Peptide text beside a SMILES is read from it. * marks the point of attachment. PhAc = O=C(Cc1ccccc1)*

Assays:
[1] = system: KA, AMPA, and NMDA iGlu receptors; conditions: cited from earlier work
[2] = system: human neural stem cells (hNSCs); assay: Neuronal differentiation of human neural stem cells (TUJ-1 staining); format: cell-based; conditions: for effect on neuronal differentiation, agent alone (in words): dose response of agent alone; for maximal percent neuronal differentiation in the presence of 1.0 μM NBQX: with 1.0 μM NBQX
male F344 rats = assay: Novel object recognition in rat; format: in vivo; conditions: 0.5 mg/kg/day i.p. once daily for 7 days, p<0.05
Description: SGS-111 (0.5 mg/kg/day, i.p.) was administered to male F344 rats (n=12) once daily for 7 days. Animals were tested after 7 days of drug administration.
Shown in FIG. 9 is the mean number of visits to the novel object for vehicle and SGS-111 treated rats (±SEM). The y-axis represents mean visits. The x-axis indicates treatment. […] This difference is indicative of cognitive enhancement, an in vivo behavioral consequence of enhanced neurogenesis by SGS-111.

[3] = system: Group I or Group III receptors; conditions: at sub-mM concentrations; cited from earlier work
mGluR2 = mGluR2 (Homo sapiens, UniProt Q14416); conditions: read-out: IC50 against mGluR2; cited from earlier work
Sequence of mGluR2 (Q14416 19-872): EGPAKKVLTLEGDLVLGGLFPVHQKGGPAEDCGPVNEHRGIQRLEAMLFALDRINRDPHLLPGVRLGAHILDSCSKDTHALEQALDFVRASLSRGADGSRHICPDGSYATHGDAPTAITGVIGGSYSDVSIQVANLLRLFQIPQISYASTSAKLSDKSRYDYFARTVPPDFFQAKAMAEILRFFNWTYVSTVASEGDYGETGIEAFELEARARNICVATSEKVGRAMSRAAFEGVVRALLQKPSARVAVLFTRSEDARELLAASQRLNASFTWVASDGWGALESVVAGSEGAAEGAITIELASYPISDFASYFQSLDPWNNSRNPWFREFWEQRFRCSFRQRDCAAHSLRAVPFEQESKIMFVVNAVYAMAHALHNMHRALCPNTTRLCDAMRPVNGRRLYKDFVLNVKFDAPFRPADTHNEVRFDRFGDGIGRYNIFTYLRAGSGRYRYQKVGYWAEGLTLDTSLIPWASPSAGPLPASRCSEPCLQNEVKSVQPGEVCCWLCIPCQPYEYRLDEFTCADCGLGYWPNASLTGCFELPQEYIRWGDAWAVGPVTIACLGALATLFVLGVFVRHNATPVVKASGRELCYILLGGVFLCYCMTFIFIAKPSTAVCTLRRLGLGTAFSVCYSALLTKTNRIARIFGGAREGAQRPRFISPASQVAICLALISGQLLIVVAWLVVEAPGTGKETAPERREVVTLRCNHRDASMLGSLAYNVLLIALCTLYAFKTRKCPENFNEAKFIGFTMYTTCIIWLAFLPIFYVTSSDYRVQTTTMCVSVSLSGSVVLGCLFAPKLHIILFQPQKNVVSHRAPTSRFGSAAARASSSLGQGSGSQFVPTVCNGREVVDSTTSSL

mGluR3 = mGluR3 (Homo sapiens, UniProt Q14832); conditions: read-out: IC50 against mGluR3; cited from earlier work
Sequence of mGluR3 (Q14832 23-879): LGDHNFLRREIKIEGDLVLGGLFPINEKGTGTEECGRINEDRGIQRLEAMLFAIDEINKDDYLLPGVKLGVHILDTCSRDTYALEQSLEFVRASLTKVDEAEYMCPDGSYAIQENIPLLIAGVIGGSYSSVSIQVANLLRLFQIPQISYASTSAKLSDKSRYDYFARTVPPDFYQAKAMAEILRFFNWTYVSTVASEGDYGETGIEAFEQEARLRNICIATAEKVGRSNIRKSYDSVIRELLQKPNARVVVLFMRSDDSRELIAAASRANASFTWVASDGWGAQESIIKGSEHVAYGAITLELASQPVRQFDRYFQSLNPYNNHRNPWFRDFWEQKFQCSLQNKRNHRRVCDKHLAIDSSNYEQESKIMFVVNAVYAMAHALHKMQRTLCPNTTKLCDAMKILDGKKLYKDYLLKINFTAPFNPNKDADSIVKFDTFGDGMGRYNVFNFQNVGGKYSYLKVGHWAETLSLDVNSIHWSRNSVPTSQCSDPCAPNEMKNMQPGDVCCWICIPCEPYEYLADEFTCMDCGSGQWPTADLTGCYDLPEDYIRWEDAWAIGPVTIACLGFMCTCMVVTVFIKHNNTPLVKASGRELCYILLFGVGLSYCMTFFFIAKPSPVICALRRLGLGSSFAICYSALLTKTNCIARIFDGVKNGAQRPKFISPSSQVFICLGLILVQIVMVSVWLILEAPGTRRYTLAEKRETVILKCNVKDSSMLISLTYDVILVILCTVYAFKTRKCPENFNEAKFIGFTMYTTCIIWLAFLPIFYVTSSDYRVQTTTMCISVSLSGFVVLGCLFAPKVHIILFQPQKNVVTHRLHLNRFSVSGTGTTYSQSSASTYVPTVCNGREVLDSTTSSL

human mGlu2 receptors = human mGlu2 receptors (Homo sapiens, UniProt Q14416); conditions: in vitro; low nanomolar range; read-out: EC50 against human mGlu2 receptors; cited from earlier work
Sequence of human mGlu2 receptors (Q14416 19-872): as the sequence (Q14416 19-872) above

human mGlu3 receptors = human mGlu3 receptors (Homo sapiens, UniProt Q14832); conditions: in vitro; low nanomolar range; read-out: EC50 against human mGlu3 receptors; cited from earlier work
Sequence of human mGlu3 receptors (Q14832 23-879): as the sequence (Q14832 23-879) above

[4] = hNSCs, test agent dose response with constant 0.316 μM AMPA, read-out: EC50 for neuronal differentiation in combination with 0.316 μM AMPA
[5] = Homo sapiens, Neural stem cell, hNSCs, agent run independently, % of neuronal positive control, basal media subtracted, read-out: EC50 for neuronal differentiation, agent alone
[6] = hNSCs, % of neuronal positive control
[7] = hNSCs, agent run independently, % of neuronal positive control, basal media subtracted, read-out: EC50 for neuronal differentiation, agent alone

For `N[C@](CC1c2ccccc2Oc2ccccc21)(C(=O)O)[C@H]1C[C@@H]1C(=O)O` [LY341495, (2S)-2-amino-2-(1S,2S-2-carboxycycloprop-1-yl)-3-(xanth-9-yl) propanoic acid], the “activity against KA, AMPA, and NMDA iGlu receptors (in words)” value [1] is listed as “substantially inactive”.

With `NC(=O)COc1c(F)cc(SCCNS(=O)(=O)c2ccccc2)cc1F` [PEPA] the “effect on neuronal differentiation in the presence of 0.316 μM AMPA (in words)” value ([2]; hNSCs, constant 0.316 μM AMPA) was “stimulation of neuronal differentiation that was dose-dependent upon PEPA”, the “effect on neuronal differentiation, agent alone (in words)” value ([2]; hNSCs) was “No effect on neuronal differentiation; also recorded: did not significantly enhance neuronal differentiation” and the EC50 [2, 4] was 0.69 µM.

With `COc1ccc2[nH]cc(CCNC(C)=O)c2c1` [melatonin] the EC50 [2, 5] was 320 µM.

For `CCOC(=O)CNC(=O)[C@@H]1CCCN1C(=O)Cc1ccccc1` [SGS-111] (PhAc-Pro-Gly-OEt), the “number of visits to / preference for the novel object versus familiar object” value (male F344 rats) was “statistically significant increase”, the “maximum percent neuronal differentiation (maximum efficacy), agent alone” value [2, 6] was roughly 40% and the “maximum percent neuronal differentiation (maximum efficacy) in combination with 0.316 μM AMPA” value ([2]; hNSCs, % of neuronal positive control, constant 0.316 μM AMPA) was “approximately 60%”. For the same molecule, the EC50 [2, 7] was 7.2 µM, the “effect on neuronal differentiation in the presence of 0.316 μM AMPA (in words)” value ([2]; hNSCs, constant 0.316 μM AMPA) was “a greater number of neurons at the highest concentration tested” and the EC50 [2, 4] was 4.2 µM.

For `NCC1CC(=O)N(Cc2ccccc2)C1` (stereo not shown) [nebracetam], the Emax ([2]; Homo sapiens, Neural stem cell, hNSCs, % of neuronal positive control, constant 0.316 μM AMPA, read-out: maximum percent neuronal differentiation (maximum efficacy) in combination with 0.316 μM AMPA) was 63%, the “effect on neuronal differentiation in the presence of 0.316 μM AMPA (in words)” value ([2]; hNSCs, constant 0.316 μM AMPA) was “promoted dose dependent neuronal differentiation” and the “effect on neuronal differentiation, agent alone (in words)” value ([2]; hNSCs) was “failed to stimulate neuronal differentiation; also recorded: no effect on neuronal differentiation”. For the same molecule, the EC50 [2, 4] was 0.28 µM and 0.97 µM.

With `COC(=O)[C@@H]1[C@H]2C[C@H]3c4[nH]c5ccccc5c4CCN3C[C@@H]2CC[C@@H]1O` [yohimbine] the EC50 [2, 5] was 0.62 µM.

In the case of `NC(=O)c1ncn([C@@H]2O[C@H](CO)[C@@H](O)[C@H]2O)n1` [ribavirin], the EC50 [2, 5] is reported as 5.14 µM.

For `COC(=O)C(c1ccccc1)C1CCCCN1` (stereo not shown) [methylphenidate HCl, methylphenidate hydrochloride], the EC50 ([2]; Homo sapiens, Neural stem cell, read-out: EC50 for neuronal differentiation, agent alone, hNSCs, agent run independently, % of neuronal positive control, basal media subtracted) was 1.29 µM.

`CCCCN(CC)c1nc(C)nc2c1c(C)c(C)n2-c1c(C)cc(C)cc1C` [antalarmin] showed an EC50 [2, 5] of 4.68 µM.

With `Cc1onc(O)c1CC(N)C(=O)O` (stereo not drawn) [AMPA, alpha-amino-3-hydroxy-5-methyl-4-isoxazolepropionic acid] the EC50 ([2]; Homo sapiens, Neural stem cell, read-out: EC50 for neuronal differentiation in the presence of 1.0 μM NBQX, hNSCs, with 1.0 μM AMPA antagonist NBQX) was greater than 32 µM, the Emax ([2]; Homo sapiens, Neural stem cell, read-out: maximum percent neuronal differentiation (maximum efficacy), agent alone) was 50% and the “effect of AMPA at 0.316 μM alone on neuronal differentiation (in words)” value ([2]; hNSCs, AMPA 0.316 μM) was “failed to stimulate neuronal differentiation; also recorded: no effects on neuronal differentiation”. The “effect on neuronal differentiation, agent alone (in words)” value ([2]; hNSCs) was “promoted neuronal differentiation” and the “maximal percent neuronal differentiation in the presence of 1.0 μM NBQX” value [2, 6] was 7%.

With `CC(=O)NCCCS(=O)(=O)O` [acamprosate] the EC50 [2, 5] was 16.4 µM and the EC50 [2, 7] was 9.68 µM.

With `NC(=O)CN1CCCC1=O` [Piracetam] the EC50 ([2]; Homo sapiens, Neural stem cell, hNSCs, with 1.0 μM AMPA antagonist NBQX, read-out: EC50 for neuronal differentiation in the presence of 1.0 μM NBQX) was greater than 32 µM, the Emax ([2]; Homo sapiens, Neural stem cell, hNSCs, % of neuronal positive control, read-out: maximum percent neuronal differentiation (maximum efficacy), agent alone) was 60% and the “effect on neuronal differentiation, agent alone (in words)” value ([2]; hNSCs) was “promoted neuronal differentiation”. For the same molecule, the “maximal percent neuronal differentiation in the presence of 1.0 μM NBQX” value [2, 6] was 38%.

In the case of `NC1(C(=O)O)CCc2cc(P(=O)(O)O)ccc21` (racemic) [APICA, (RS)-1-amino-5-phosphonoindan-1-carboxylic acid], the “activity against Group I or Group III receptors (in words)” value [3] is given as “no appreciable activity”, the IC50 (mGluR2) is given as roughly 30 µM and the IC50 (mGluR3) is given as roughly 30 µM.

With `O=C1CC2(CCCC2)CC(=O)N1CCCCN1CCN(c2ncccn2)CC1` [buspirone] the EC50 [2, 5] was 7.43 µM.

In the case of `N[C@@]1(C(=O)O)CO[C@H]2[C@H](C(=O)O)[C@H]21` [LY379268, (−)-2-oxa-4-aminobicyclohexane-4,6-dicarboxylic acid], the EC50 (human mGlu2 receptors) is given as less than 0.01 µM and the EC50 (human mGlu3 receptors) is given as less than 0.01 µM.

`O=C1CC[C@H](C(=O)N2CCCCC2)N1` [fasoracetam] gave an EC50 [2, 5] of 3.13 µM.

With `CCCc1nc2c(C)cc(-c3nc4ccccc4n3C)cc2n1Cc1ccc(-c2ccccc2C(=O)O)cc1` [telmisartan] the EC50 [2, 5] was 2.75 µM.

In the case of `CC(=O)N1CCN(NC(=O)c2ccc(F)cc2)CC1` [FK-960], the EC50 [2, 7] is reported as 7 µM and the “effect on neuronal differentiation, agent alone (in words)” value ([2]; hNSCs) is reported as “promoted neuronal differentiation”.
